Columns and labels:
Assay type in all cases: in vivo
[1] = test system: lambsquarters (Chenopodium album); experiment: Test B postemergence
Outline: (§1)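 Greenhouse test: chemicals are formulated in a surfactant-containing non-phytotoxic solvent and applied either preemergence to planted seeds or postemergence to plants 2 to 18 cm tall. Response is rated visually versus controls after 13 to 15 days, 0 meaning no effect and 100 complete control.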

[2] = test system: crabgrass (Digitaria sanguinalis); experiment: Test B postemergence
Outline: as §1

wild oat (Avena fatua) = experiment: Test B postemergence
Outline: as §1

[3] = test system: cocklebur (Xanthium strumarium); experiment: Test B postemergence
Outline: as §1

[4] = test system: lambsquarters (Chenopodium album); experiment: Test C preemergence
Description: (§2) Seeds of plant species selected from bermudagrass (Cynodon dactylon), Surinam grass (Brachiaria decumbens), cocklebur (Xanthium strumarium), corn (Zea mays), crabgrass (Digitaria sanguinalis), woolly cupgrass (Eriochloa villosa), giant foxtail (Setaria faberii), goosegrass (Eleusine indica), johnsongrass (Sorghum halepense), kochia (Kochia scoparia), lambsquarters (Chenopodium album), morningglory (Ipomoea hederacea), yellow nutsedge (Cyperus esculentus), pigweed (Amaranthus retroflexus), common ragweed (Ambrosia elatior), soybean (Glycine max) and velvetleaf (Abutilon theophrasti) were planted and treated preemergence with test chemicals formulated in a non-phytotoxic solvent mixture which included a surfactant.
(§3) At the same time, plants selected from these crop and weed species and also winter barley (Hordeum vulgare), blackgrass (Alopecurus myosuroides), canary grass (Phalaris minor), chickweed (Stellaria media), downy brome (Bromus tectorum), green foxtail (Setaria viridis), Italian ryegrass (Lolium multiflorum), wheat (Triticum aestivum), wild oat (Avena fatua) and windgrass (Apera spica-venti) were treated with postemergence applications of some of the test chemicals formulated in the same manner. Plants ranged in height from 2 to 18 cm (1- to 4-leaf stage) for postemergence treatments. Plant species in the flooded paddy test consisted of rice (Oryza saliva), smallflower flatsedge (Cyperus difformis), duck salad (Heteranthera limosa) and barnyardgrass (Echinochloa crus-galli) grown to the 2-leaf stage for testing. Treated plants and controls were maintained in a greenhouse for 12 to 14 days, after which time all species were compared to controls and visually evaluated. Plant response ratings, summarized in Table C, are based on a scale of 0 to 100 where 0 is no effect and 100 is complete control. A dash (-) response means no test result.

Nightshade = experiment: Test C preemergence
Description: as §2, §3

[5] = test system: giant foxtail (Setaria faberii); experiment: Test C preemergence
Description: as §2, §3

corn (Zea mays) = experiment: Test C preemergence
Description: as §2, §3

[6] = test system: woolly cupgrass (Eriochloa villosa); experiment: Test C preemergence
Description: as §2, §3

[7] = test system: Surinam grass (Brachiaria decumbens); experiment: Test C preemergence
Description: as §2, §3

soybean (Glycine max) = experiment: Test C preemergence
Description: as §2, §3

kochia (Kochia scoparia) = experiment: Test C preemergence
Description: as §2, §3

[8] = test system: pigweed (Amaranthus retroflexus); experiment: Test C preemergence
Description: as §2, §3

[9] = Rate 125 g/ha, scale 0 (no effect) to 100 (complete control), 13 to 15 days
[10] = Rate 500 g/ha, scale 0 to 100, 0 is no effect, 100 is complete control, 13 to 15 days
[11] = Rate 62 g/ha, scale 0 to 100, 0 no effect, 100 complete control
[12] = Rate 250 g/ha, scale 0 (no effect) to 100 (complete control), 13 to 15 days
[13] = preemergence, Rate 31 g/ha, scale 0 to 100
[14] = preemergence, Rate 125 g/ha, scale 0 to 100, 0 no effect, 100 complete control

CC1CCc2cn(C3CCN(c4cccc(C(F)(F)F)c4)C3=O)nc21 (stereo not shown) [Compound 11]
Plant response rating, Lambsquarters [1, 9]: 0 | Plant response rating, Lambsquarters [1, 10]: 0 | Plant response rating, Crabgrass [2, 9]: 0 | Plant response rating, Crabgrass [2, 10]: 0 | Plant response rating, Wild Oat (wild oat (Avena fatua); [9]): 0 | Plant response rating, Wild Oat (wild oat (Avena fatua); [10]): 0 | Plant response rating, Cocklebur [3, 9]: 0 | Plant response rating, Cocklebur [3, 10]: 0

CC(C)(C)c1ccn(C2CCN(c3cccc(C(F)(F)F)c3)C2=O)n1 (stereo not shown) [Example 3, 3-[3-(1,1-dimethylethyl)-1H-pyrazol-1-yl]-1-[3-(trifluoromethyl)phenyl]-2-pyrrolidinone]
Plant response rating, Lambsquarters [1, 9]: 80 | Plant response rating, Lambsquarters [1, 10]: 100 | Plant response rating, Crabgrass [2, 9]: 0 | Plant response rating, Crabgrass [2, 10]: 40 | Plant response rating, Wild Oat (wild oat (Avena fatua); [9]): 0 | Plant response rating, Wild Oat (wild oat (Avena fatua); [10]): 0 | Plant response rating, Cocklebur [3, 9]: 0 | Plant response rating, Cocklebur [3, 10]: 30

CC(C)(C)c1ccn(C2SCN(c3cccc(C(F)(F)F)c3)C2=O)n1 (stereo not shown) [Compound 1]
Plant response rating, Lambsquarters [1, 9]: 90 | Plant response rating, Lambsquarters [1, 10]: 100 | Plant response rating, Crabgrass [2, 9]: 0 | Plant response rating, Crabgrass [2, 10]: 40 | Plant response rating, Wild Oat (wild oat (Avena fatua); [9]): 0 | Plant response rating, Wild Oat (wild oat (Avena fatua); [10]): 0 | Plant response rating, Cocklebur [3, 9]: 60 | Plant response rating, Cocklebur [3, 10]: 80

CC(C)(C)c1ccn(C2OCN(c3cccc(C(F)(F)F)c3)C2=O)n1 (stereo not shown) [compound 9]
Plant response rating, Lambsquarters [1, 11]: 70 | Plant response rating, Lambsquarters [1, 12]: 80 | Plant response rating, Crabgrass [2, 11]: 0 | Plant response rating, Crabgrass [2, 12]: 0 | Plant response rating, Wild Oat (wild oat (Avena fatua); [11]): 0 | Plant response rating, Wild Oat (wild oat (Avena fatua); [12]): 0 | Plant response rating, Cocklebur [3, 11]: 10 | Plant response rating, Cocklebur [3, 12]: 20

CCC(CC)c1ccn(C2OCN(c3cccc(OC(F)(F)F)c3)C2=O)n1 (stereo not shown) [Compound 68]
Plant response rating, Lambsquarters [1, 9]: 100 | Plant response rating, Lambsquarters [1, 10]: 100 | Plant response rating, Crabgrass [2, 9]: 90 | Plant response rating, Crabgrass [2, 10]: 100 | Plant response rating, Wild Oat (wild oat (Avena fatua); [9]): 0 | Plant response rating, Wild Oat (wild oat (Avena fatua); [10]): 0 | Plant response rating, Cocklebur [3, 9]: 50 | Plant response rating, Cocklebur [3, 10]: 80

O=C1C(n2cc(Cl)c(C3CC3)n2)CCN1c1cccc(C(F)(F)F)c1 (stereo not shown) [Compound 12]
Plant response rating, Lambsquarters [1, 9]: 0 | Plant response rating, Lambsquarters [1, 10]: 0 | Plant response rating, Crabgrass [2, 9]: 0 | Plant response rating, Crabgrass [2, 10]: 0 | Plant response rating, Wild Oat (wild oat (Avena fatua); [9]): 0 | Plant response rating, Wild Oat (wild oat (Avena fatua); [10]): 0 | Plant response rating, Cocklebur [3, 9]: 0 | Plant response rating, Cocklebur [3, 10]: 0

O=C1C(n2cccn2)CCN1c1cccc(C(F)(F)F)c1 (stereo not shown) [Compound 15]
Plant response rating, Lambsquarters [1, 9]: 0 | Plant response rating, Lambsquarters [1, 10]: 0 | Plant response rating, Crabgrass [2, 9]: 20 | Plant response rating, Crabgrass [2, 10]: 50 | Plant response rating, Wild Oat (wild oat (Avena fatua); [9]): 0 | Plant response rating, Wild Oat (wild oat (Avena fatua); [10]): 50 | Plant response rating, Cocklebur [3, 9]: 0 | Plant response rating, Cocklebur [3, 10]: 0

O=C1C(n2ccc(C3CC3)n2)SCN1c1cccc(C(F)(F)F)c1 (stereo not shown) [Compound 26]
Plant response rating, Lambsquarters [1, 9]: 80 | Plant response rating, Lambsquarters [1, 10]: 80 | Plant response rating, Crabgrass [2, 9]: 0 | Plant response rating, Crabgrass [2, 10]: 20 | Plant response rating, Wild Oat (wild oat (Avena fatua); [9]): 0 | Plant response rating, Wild Oat (wild oat (Avena fatua); [10]): 0 | Plant response rating, Cocklebur [3, 9]: 50 | Plant response rating, Cocklebur [3, 10]: 60

COc1cc(N2CCC(n3ccc(C(C)(C)C)n3)C2=O)ccc1C (stereo not shown) [Compound 42]
Plant response rating, Lambsquarters [1, 9]: 70 | Plant response rating, Lambsquarters [1, 10]: 100 | Plant response rating, Crabgrass [2, 9]: 50 | Plant response rating, Crabgrass [2, 10]: 80 | Plant response rating, Wild Oat (wild oat (Avena fatua); [9]): 0 | Plant response rating, Wild Oat (wild oat (Avena fatua); [10]): 40 | Plant response rating, Cocklebur [3, 9]: 40 | Plant response rating, Cocklebur [3, 10]: 60 | Plant response rating, Lambsquarters [4, 11]: 100 | Plant response rating, Lambsquarters [4, 13]: 20 | Plant response rating, Lambsquarters [4, 14]: 100 | Plant response rating, Nightshade (Nightshade; Rate 31 g/ha, scale 0 to 100): 0 | Plant response rating, Nightshade (Nightshade; [11]): 0 | Plant response rating, Nightshade (Nightshade; Rate 125 g/ha, scale 0 to 100, 0 no effect, 100 complete control): 100 | Plant response rating, Foxtail, Giant [5, 11]: 50 | Plant response rating, Foxtail, Giant [5, 13]: 30 | Plant response rating, Foxtail, Giant [5, 14]: 100 | Plant response rating, Corn (corn (Zea mays); [11]): 20 | Plant response rating, Corn (corn (Zea mays); [13]): 0 | Plant response rating, Corn (corn (Zea mays); [14]): 40 | Plant response rating, Cupgrass, Woolly [6, 11]: 20 | Plant response rating, Cupgrass, Woolly [6, 13]: 0 | Plant response rating, Cupgrass, Woolly [6, 14]: 100 | Plant response rating, Surinam grass [7, 11]: 70 | Plant response rating, Surinam grass [7, 13]: 0 | Plant response rating, Surinam grass [7, 14]: 90 | Plant response rating, Soybean (soybean (Glycine max); [11]): 50 | Plant response rating, Soybean (soybean (Glycine max); [13]): 20 | Plant response rating, Soybean (soybean (Glycine max); [14]): 50 | Plant response rating, Kochia (kochia (Kochia scoparia); [11]): 50 | Plant response rating, Kochia (kochia (Kochia scoparia); [13]): 20 | Plant response rating, Kochia (kochia (Kochia scoparia); [14]): 100 | Plant response rating, Pigweed [8, 11]: 60 | Plant response rating, Pigweed [8, 13]: 0 | Plant response rating, Pigweed [8, 14]: 100

Cc1ccn(C2CCN(c3cccc(C(F)(F)F)c3)C2=O)n1 (stereo not shown) [Compound 16]
Plant response rating, Lambsquarters [1, 9]: 0 | Plant response rating, Lambsquarters [1, 10]: 0 | Plant response rating, Crabgrass [2, 9]: 0 | Plant response rating, Crabgrass [2, 10]: 60 | Plant response rating, Wild Oat (wild oat (Avena fatua); [9]): 0 | Plant response rating, Wild Oat (wild oat (Avena fatua); [10]): 50 | Plant response rating, Cocklebur [3, 9]: 0 | Plant response rating, Cocklebur [3, 10]: 0

CC1(C)CCc2cn(C3CCN(c4cccc(C(F)(F)F)c4)C3=O)nc21 (stereo not shown) [Compound 10]
Plant response rating, Lambsquarters [1, 9]: 0 | Plant response rating, Lambsquarters [1, 12]: 100 | Plant response rating, Lambsquarters [1, 10]: 0 | Plant response rating, Crabgrass [2, 9]: 0 | Plant response rating, Crabgrass [2, 12]: 0 | Plant response rating, Crabgrass [2, 10]: 0 | Plant response rating, Wild Oat (wild oat (Avena fatua); [9]): 0 | Plant response rating, Wild Oat (wild oat (Avena fatua); [12]): 0 | Plant response rating, Wild Oat (wild oat (Avena fatua); [10]): 0 | Plant response rating, Cocklebur [3, 9]: 0 | Plant response rating, Cocklebur [3, 12]: 0 | Plant response rating, Cocklebur [3, 10]: 0

CC1(c2ccn(C3OCN(c4cccc(OC(F)(F)F)c4)C3=O)n2)CC1 (stereo not shown) [Compound 69]
Plant response rating, Lambsquarters [1, 9]: 80 | Plant response rating, Lambsquarters [1, 10]: 80 | Plant response rating, Crabgrass [2, 9]: 0 | Plant response rating, Crabgrass [2, 10]: 30 | Plant response rating, Wild Oat (wild oat (Avena fatua); [9]): 0 | Plant response rating, Wild Oat (wild oat (Avena fatua); [10]): 0 | Plant response rating, Cocklebur [3, 9]: 0 | Plant response rating, Cocklebur [3, 10]: 20

CCC(C)c1nn(C2CCN(c3cccc(C(F)(F)F)c3)C2=O)cc1Cl (stereo not shown) [Compound 13]
Plant response rating, Lambsquarters [1, 9]: 0 | Plant response rating, Lambsquarters [1, 10]: 0 | Plant response rating, Crabgrass [2, 9]: 60 | Plant response rating, Crabgrass [2, 10]: 60 | Plant response rating, Wild Oat (wild oat (Avena fatua); [9]): 20 | Plant response rating, Wild Oat (wild oat (Avena fatua); [10]): 20 | Plant response rating, Cocklebur [3, 9]: 0 | Plant response rating, Cocklebur [3, 10]: 0

CCC(C)c1ccn(C2OCN(c3cccc(C(F)(F)F)c3)C2=O)n1 (stereo not shown) [Compound 24]
Plant response rating, Lambsquarters [1, 9]: 90 | Plant response rating, Lambsquarters [1, 10]: 100 | Plant response rating, Crabgrass [2, 9]: 60 | Plant response rating, Crabgrass [2, 10]: 90 | Plant response rating, Wild Oat (wild oat (Avena fatua); [9]): 0 | Plant response rating, Wild Oat (wild oat (Avena fatua); [10]): 0 | Plant response rating, Cocklebur [3, 9]: 20 | Plant response rating, Cocklebur [3, 10]: 40

CC(C)(C)c1nn(C2CCN(c3cccc(C(F)(F)F)c3)C2=O)cc1Cl (stereo not shown) [Compound 14]
Plant response rating, Lambsquarters [1, 9]: 0 | Plant response rating, Lambsquarters [1, 10]: 0 | Plant response rating, Crabgrass [2, 9]: 50 | Plant response rating, Crabgrass [2, 10]: 70 | Plant response rating, Wild Oat (wild oat (Avena fatua); [9]): 0 | Plant response rating, Wild Oat (wild oat (Avena fatua); [10]): 0 | Plant response rating, Cocklebur [3, 9]: 0 | Plant response rating, Cocklebur [3, 10]: 0
